Entries after “also recorded” stand apart in the source; their conditions may differ. Ends that are not written are not given here.
Columns and labels:
Ucn 2 null mice [1] = experiment: Glucose tolerance test (GTT) in Ucn 2 null mice; format: in vivo, mouse; conditions: fasted male Ucn 2 null mice; 0.1 μg/kg IP 20 min prior to glucose 2 g/kg
Protocol: (§1) FIG. 1a-f: Metabolic phenotype of Ucn 2 null mice. […] The ability of the Ucn 2 null mice and wild type littermates to handle a glucose load was assessed using a standard glucose tolerance test (see example 1). Fasted male mice were injected intraperitoneally (IP) with glucose (2 g/kg body weight) and blood glucose levels were measured before and at 15, 30, 60, 90 and 120 min following glucose injection. […] Fasted male Ucn 2 null mice were injected IP with saline or with 0.1 μg/kg body weight Ucn 2, 20 min prior to glucose injection (2 g/kg body weight) and blood glucose levels were measured before and at 15, 30, 60 and 90 min following glucose injection. […] Fasted male wild type mice were injected IP with saline or with astressin2B (30 μg/kg body weight), 20 min prior to glucose injection (2 g/kg body weight), and blood glucose levels were measured before and at 15, 30, 60 and 90 min following glucose injection. (d) The enhanced glucose tolerance in the Ucn 2 null mice is not due to increased insulin secretion. Fasted male mice were injected with glucose (3 g/kg body weight, IP) and blood samples were collected at 2, 5, 15 and 30 min following glucose injection and insulin was measured by radioimmunoassay. […] Fasted male mice were injected with insulin (0.75 U/kg body weight, IP) and blood glucose levels were measured before and at 15, 30, 60 and 90 min following insulin injection. […]

Ucn 2 null mice [2] = experiment: Insulin tolerance test (ITT) in Ucn 2 null mice; format: in vivo, mouse; conditions: fasted male Ucn 2 null mice; 0.1 μg/kg IP 20 min prior to insulin 0.75 U/kg
Protocol: as §1

[3] = system: insulin signaling in C2C12 myotubes; experiment: Phosphorylation studies of insulin signaling in C2C12 myotubes; format: cell-based
Protocol: FIG. 3a-l: Urocortin 2 effects on muscle glucose uptake are mediated by inhibition of insulin signaling. (a-f). Ucn 2 inhibits the insulin-induced Akt and ERK1/2 phosphorylation but not the insulin receptor phosphorylation. Differentiated C2C12 myotubes were pre-incubated with or without Ucn 2 peptide (0.1, 1 or 10 nM) for 1 hour prior to insulin treatment (10 nM, 5 min). Cell lystates were resolved using 4-12% gradient polyacrylamide gels. Gels were electrophorectically transferred to membranes and probed with antibodies specific for the phospho proteins pAkt (Ser 473), pERK1/2 or pIR (Tyr1146). Stimulation of Akt, ERK or insulin receptor (IR) activation was calculated by fold activation of the phosphorylated form normalized to total and compared with the untreated controls (a, d and f, graphs). […] (g-j) Ucn 2 treatment increases the phosphorylation of serine residue 307 and not the tyrosin phosphorylation of IRS-1. Myotube cells, treated with or without PKA inhibitor (H-89), were incubated with insulin and different concentrations of Ucn 2. IRS-1 immunoprecipitated proteins were electrophoresed as before and the immunoblots were probed for phosphorylated tyrosin (g), phosphorylated serine 307 IRS-1 (i) and total IRS-1 (g, i). […] (k) The effect of Ucn 2 on [^3H]2-deoxy-D-glucose uptake in differentiated C2C12 myotubes. Cells were incubated for 2 hours in low glucose, serum free medium and treated with Ucn 2 (0.1, 1 or 10 nM) or without (control) for 30 min prior to insulin administration (10 nM). Glucose uptake was measured 5 min following exposure to [^3H]2-deoxy-D-glucose. Non-specific uptake was measured by incubating muscle tissue with cytochalasin B, which binds to the glucose uptake transporter (GLUT) and inhibits glucose transport into the cell. Specific uptake was calculated by subtracting non specific from total glucose. (l) Schematic representation of the putative cellular mechanisms mediating the effect of Ucn 2 and CRFR2 on the insulin signaling and glucose uptake in skeletal muscle cells. * indicates p<0.05 vs. no treatment. # indicates p<0.05 vs. insulin treatment (b, d, f) or p<0.05 vs. insulin treatment and Ucn 2 (i).
Differentiated C2C12 myotubes were pre-incubated with or without Ucn 2 peptide (0.1, 1 or 10 nM) for 1 hour prior to insulin treatment (10 nM, 5 min). Cells were harvested immediately in 100 μl of sample treatment buffer [STB, 50 mM Tris (pH 6.8), 100 mM dithiothreitol, 2% (wt/vol) sodium dodecyl sulfate, 0.1% (wt/vol) bromphenol blue, and 10% (wt/vol) glycerol]. The samples were boiled for 5 min, proteins were electrophoresed on 4-12% sodium dodecyl sulfate-polyacrylamide gradient gel (Invitrogen Life Technologies), subsequently transferred onto nitrocellulose membranes, and probed with antibodies specific for phosphorylated Akt (Ser 473, Cell Signaling Technology, Inc., Beverly, Mass.), phosphorylated ERK1/2-p42, 44 (Santa Cruz Biotechnology, Inc., Santa Cruz, Calif.), phosphorylated insulin receptor (Tyr 1146, Cell Signaling Technology, Inc.), or phosphorylated IRS1 (Ser 307, Upstate Cell Signaling Solutions, Lake placid, NY). The membranes were washed with phosphate buffer saline containing 0.05% (vol/vol) Tween 20 and incubated with horseradish peroxidase-conjugated anti mouse or rabbit IgG raised in sheep (Amersham Biotech Pharmacia). Immunoreactive proteins were visualized using Super Signal West Pico Chemiluminescent substrate (Pierce, Rockford, Ill.). The relative protein levels were determined using densitometry (Image quant 1.2) by probing the membranes with antibodies directed against total proteins.

C2C12 myotubes = experiment: [3H]2-deoxy-D-glucose uptake in C2C12 myotubes; format: cell-based; conditions: 0.1, 1 or 10 nM for 30 min prior to insulin 10 nM
Protocol: FIG. 3a-l: Urocortin 2 effects on muscle glucose uptake are mediated by inhibition of insulin signaling. (a-f). Ucn 2 inhibits the insulin-induced Akt and ERK1/2 phosphorylation but not the insulin receptor phosphorylation. Differentiated C2C12 myotubes were pre-incubated with or without Ucn 2 peptide (0.1, 1 or 10 nM) for 1 hour prior to insulin treatment (10 nM, 5 min). Cell lystates were resolved using 4-12% gradient polyacrylamide gels. Gels were electrophorectically transferred to membranes and probed with antibodies specific for the phospho proteins pAkt (Ser 473), pERK1/2 or pIR (Tyr1146). Stimulation of Akt, ERK or insulin receptor (IR) activation was calculated by fold activation of the phosphorylated form normalized to total and compared with the untreated controls (a, d and f, graphs). […] (g-j) Ucn 2 treatment increases the phosphorylation of serine residue 307 and not the tyrosin phosphorylation of IRS-1. Myotube cells, treated with or without PKA inhibitor (H-89), were incubated with insulin and different concentrations of Ucn 2. […] Glucose uptake was measured 5 min following exposure to [^3H]2-deoxy-D-glucose. Non-specific uptake was measured by incubating muscle tissue with cytochalasin B, which binds to the glucose uptake transporter (GLUT) and inhibits glucose transport into the cell. Specific uptake was calculated by subtracting non specific from total glucose. […]

[4] = 0.1, 1 or 10 nM for 1 hour prior to insulin 10 nM, 5 min
[5] = IRS-1 immunoprecipitates, insulin and Ucn 2

insulin-induced phosphorylation of the insulin receptor (Tyr1146) [3, 4]: no significant differences
Substance: Ucn 2: Urocortin 2, member of the CRF family, CRFR2 agonist; synthetic peptide (IVLSLDVPIGLLQILLEQARARAAREQATTNARILARVGHC; ends and bridges not checked; UniProt Q96RP3 72-112, looked up)
blood glucose in glucose tolerance test (Ucn 2 null mice [1]): restores blood glucose to wild type levels | blood glucose in insulin tolerance test (Ucn 2 null mice [2]): restored blood glucose levels to those of wild type mice; also recorded: restores blood glucose to wild type levels | insulin-induced ERK1/2 phosphorylation [3, 4]: reduces; also recorded: inhibited; also recorded: dose dependently inhibits | insulin-induced phosphorylation of Akt (Ser 473) [3, 4]: reduces; also recorded: inhibits the insulin-induced phosphorylation of Akt in a dose dependent fashion; also recorded: dose dependently inhibits | phosphorylation of IRS-1 on serine residue 307 [3, 5]: greatly increases; also recorded: strongly increases | tyrosine phosphorylation of IRS-1 in response to insulin [3, 5]: remains unchanged | insulin induced glucose uptake (C2C12 myotubes): reduces; also recorded: dose dependently inhibited

— patent US7815905B2, “Methods of increasing insulin sensitivity or decreasing insulin secretion by administering corticotropin releasing factor receptor-2 inhibitors” (Research Development Foundation, priority 2006, dated 2010)
